From BindingDB's records for doi:10.7270/Q2V69MR5 (n/a, 1993)

Target: T1, Neutrophil elastase (Homo sapiens, UniProt P08246)
T1 sequence (P08246 whole entry): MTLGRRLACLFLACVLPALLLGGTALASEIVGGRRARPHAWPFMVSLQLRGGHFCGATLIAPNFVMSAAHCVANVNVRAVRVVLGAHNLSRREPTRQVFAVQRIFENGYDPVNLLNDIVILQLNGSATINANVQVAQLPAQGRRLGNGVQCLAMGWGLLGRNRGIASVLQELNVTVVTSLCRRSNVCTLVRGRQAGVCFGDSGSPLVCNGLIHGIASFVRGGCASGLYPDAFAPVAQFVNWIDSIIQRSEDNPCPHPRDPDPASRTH
Assay: Compound was evaluated for the inhibitory activity against Human leukocyte elastase; time-dependent inhibition was not observed
Conditions: read-out: kon (M-1-s-1)

`CC[C@H]1C(=O)N(C(=O)NCc2ccccc2)[C@H]1Oc1ccc(C(=O)O)cc1` was tested, and the kon was 5.6 M⁻¹ s⁻¹.
